Results reported in ChEMBL document CHEMBL3045042, “The discovery of SYP-10913 and SYP-11277: novel strobilurin acaricides” (Pest Manag Sci, 2011).
≈ marks a conversion by molar mass, not a printed value.

Assays:
Tetranychus cinnabarinus [1] = assay: Acaricidal activity against Tetranychus cinnabarinus (carmine spider mite) in kidney bean leaf assessed as mortality at 40 mg/L measured after 72 hr of spray; type: functional
Tetranychus cinnabarinus [2] = assay: Acaricidal activity against Tetranychus cinnabarinus (carmine spider mite) in kidney bean leaf assessed as mortality at 10 mg/L measured after 72 hr of spray; type: functional
Tetranychus cinnabarinus [3] = assay: Acaricidal activity against Tetranychus cinnabarinus (carmine spider mite) in kidney bean leaf assessed as mortality at 5 mg/L measured after 72 hr of spray; type: functional
Tetranychus cinnabarinus [4] = assay: Acaricidal activity against Tetranychus cinnabarinus (carmine spider mite) in kidney bean leaf assessed as mortality at 1.25 mg/L measured after 72 hr of spray; type: functional
Tetranychus cinnabarinus [5] = assay: Acaricidal activity against Tetranychus cinnabarinus (carmine spider mite) in kidney bean leaf assessed as mortality at 2.5 mg/L measured after 72 hr of spray; type: functional
Tetranychus cinnabarinus [6] = assay: Acaricidal activity against nymphs of Tetranychus cinnabarinus (carmine spider mite) in kidney bean leaf assessed as mortality measured after 120 hr; type: functional
Tetranychus cinnabarinus [7] = assay: Acaricidal activity against eggs of Tetranychus cinnabarinus (carmine spider mite) in kidney bean leaf assessed as unhatched eggs measured after 120 hr; type: functional
[8] = Acute oral toxicity in Mus musculus (mouse); type: organism-based; settings: in vivo
Oryctolagus cuniculus [9] = organism: Oryctolagus cuniculus; assay: Toxicity in Oryctolagus cuniculus (rabbit) assessed as eye irritation; type: organism-based; settings: in vivo
[10] = Acute percutaneous toxicity in Mus musculus (mouse); type: organism-based; settings: in vivo, topical or ocular
Oryctolagus cuniculus [11] = organism: Oryctolagus cuniculus; assay: Toxicity in Oryctolagus cuniculus (rabbit) assessed as skin irritation; type: organism-based; settings: in vivo
Salmonella typhimurium = assay: Genotoxicity in Salmonella enterica subsp. enterica serovar Typhimurium by Ames test; type: toxicity, organism-based

| Compound | mortality at 40 µg/mL (Tetranychus cinnabarinus [1]) | mortality at 10 µg/mL (Tetranychus cinnabarinus [2]) | further results |
| --- | --- | --- | --- |
| CO/C=C(/C(=O)OC)c1ccccc1COc1cc(C(F)(F)F)nc(Nc2ccc(Cl)cc2)n1 | 0% | 0% |  |
| CO/C=C(/C(=O)OC)c1ccccc1COc1cc(C(F)(F)F)nc(Nc2c(Cl)cccc2Cl)n1 | 0% | 0% |  |
| CO/C=C(/C(=O)OC)c1ccccc1COc1cc(C(F)(F)F)nc(Nc2ccc(Cl)c(Cl)c2)n1 | 73% | 0% |  |
| CO/C=C(/C(=O)OC)c1ccccc1COc1cc(C(F)(F)F)nc(Nc2cc(Cl)ccc2Cl)n1 | 100% | 20% |  |
| CO/C=C(/C(=O)OC)c1ccccc1COc1cc(C(F)(F)F)nc(Nc2cc(Cl)c(Cl)cc2Cl)n1 | 0% | 0% |  |
| CO/C=C(/C(=O)OC)c1ccccc1COc1cc(C(F)(F)F)nc(Nc2cc(C)ccc2C)n1 | 0% | 0% |  |
| CO/C=C(/C(=O)OC)c1ccccc1COc1cc(C(F)(F)F)nc(Nc2cccc(C)c2)n1 | 90% | 20% |  |
| CO/C=C(/C(=O)OC)c1ccccc1COc1cc(C(F)(F)F)nc(Nc2ccc(Cl)c(Cl)c2Cl)n1 | 100% | 100% | mortality at 5 µg/mL (Tetranychus cinnabarinus [3]): 100%; mortality at 1.25 µg/mL (Tetranychus cinnabarinus [4]): 75%; mortality at 2.5 µg/mL (Tetranychus cinnabarinus [5]): 98% |
| CO/C=C(/C(=O)OC)c1ccccc1COc1cc(C(F)(F)F)nc(Nc2ccc(C)cc2)n1 | 0% | 0% |  |
| CO/C=C(/C(=O)OC)c1ccccc1COc1cc(C(F)(F)F)nc(Nc2ccc(Cl)cc2Cl)n1 [SYP-11277] | 100% | 100% | mortality at 5 µg/mL (Tetranychus cinnabarinus [3]): 100%; mortality at 1.25 µg/mL (Tetranychus cinnabarinus [4]): 90%; LC50 (Tetranychus cinnabarinus [6]): 0.37 mg/L (≈ 0.7 µM); mortality at 2.5 µg/mL (Tetranychus cinnabarinus [5]): 98%; LC50 (Tetranychus cinnabarinus [7]): 3.63 mg/L (≈ 6.87 µM) |
| CO/C=C(/C(=O)OC)c1ccccc1COc1cc(C(F)(F)F)nc(Nc2cccc(Cl)c2C)n1 | 0% | 0% |  |
| CO/C=C(/C(=O)OC)c1ccccc1COc1cc(C(F)(F)F)nc(Nc2ccc(Cl)c(C)c2Cl)n1 | 100% | 100% | mortality at 5 µg/mL (Tetranychus cinnabarinus [3]): 100%; mortality at 1.25 µg/mL (Tetranychus cinnabarinus [4]): 79%; mortality at 2.5 µg/mL (Tetranychus cinnabarinus [5]): 92% |
| CO/C=C(/C(=O)OC)c1ccccc1COc1cc(C(F)(F)F)nc(Nc2cccc(Cl)c2Cl)n1 | 100% | 100% | LD50 [8]: ≥ 4640 mg/kg; Activity (Oryctolagus cuniculus [9]): Toxic; LD50 [10]: ≥ 2150 mg/kg; mortality at 5 µg/mL (Tetranychus cinnabarinus [3]): 99%; mortality at 1.25 µg/mL (Tetranychus cinnabarinus [4]): 75%; LC50 (Tetranychus cinnabarinus [6]): 0.34 mg/L (≈ 0.644 µM); Activity (Oryctolagus cuniculus [11]): Non-toxic; Activity (Salmonella typhimurium): Non-toxic; mortality at 2.5 µg/mL (Tetranychus cinnabarinus [5]): 95%; LC50 (Tetranychus cinnabarinus [7]): 4.75 mg/L (≈ 8.99 µM) |
| CO/C=C(/C(=O)OC)c1ccccc1COc1cc(C(F)(F)F)nc(Nc2ccc(C)c(C)c2)n1 | 97% | 20% |  |
| CO/C=C(/C(=O)OC)c1ccccc1COc1cc(C(F)(F)F)nc(Nc2ccc(C(F)(F)F)cc2)n1 | 0% | 0% |  |
| CO/C=C(/C(=O)OC)c1ccccc1COc1cc(C(F)(F)F)nc(Nc2cc(Cl)cc(Cl)c2)n1 | 0% | 0% |  |
| CO/C=C(/C(=O)OC)c1ccccc1COc1cc(C(F)(F)F)nc(Nc2ccc(Cl)cc2C)n1 | 0% | 0% |  |
| CO/C=C(/C(=O)OC)c1ccccc1COc1cc(C(F)(F)F)nc(OC(C)C)n1 [FLUACRYPYRIM] | 100% | 95% | mortality at 5 µg/mL (Tetranychus cinnabarinus [3]): 94%; mortality at 1.25 µg/mL (Tetranychus cinnabarinus [4]): 30%; LC50 (Tetranychus cinnabarinus [6]): 0.64 mg/L (≈ 1.5 µM); mortality at 2.5 µg/mL (Tetranychus cinnabarinus [5]): 65%; LC50 (Tetranychus cinnabarinus [7]): 5.95 mg/L (≈ 14 µM) |
| CO/C=C(/C(=O)OC)c1ccccc1COc1cc(C(F)(F)F)nc(Nc2ccccc2C)n1 | 100% | 0% |  |
| CO/C=C(/C(=O)OC)c1ccccc1COc1cc(C(F)(F)F)nc(Nc2ccc(OC)cc2)n1 | 0% | 0% |  |
| CO/C=C(/C(=O)OC)c1ccccc1COc1cc(C(F)(F)F)nc(Nc2ccc(C)cc2C)n1 | 100% | 76% |  |
